Biological target: Gag-Pol polyprotein (Human immunodeficiency virus type 1 group M subtype B (isolate HXB2), UniProt P04585)
Assay: Microtiter Plate Assay for Strand Transfer
Conditions: pH 7.8; 37 °C
Experimental: The microtiter plate assay for stand transfer was performed with an immobilized donor substrate and a target substrate biotinylated at the 3-prime end of each DNA strand. Integrase was first assembled with immobilized LTR oligonucleotides for 30 min. Inhibitors were added after assembly and washings. For the strand transfer reaction, it was initiated with the addition of the biotinylated target substrate. Strand transfer reaction mixtures were incubated for additional 30 min, and the strand transfer products were detected by using alkaline phosphatase-conjugated avidin (Boehringer Mannheim, Indianapolis, Ind.).

- IC50: 100 nM
SMILES: CC(c1nc(C(=O)NCc2ccc(F)cc2)c(O)c(=O)[nH]1)N(C)C (stereo unspecified) [JMC496646 Compound 11]

Reference: BindingDB's records for doi:10.1021/jm701164t (Irbm-Mrl, 2008)
